This is an account of results in US9504676B2, “Molecules inhibiting a metabolic pathway involving the Syk protein tyrosine kinase and method for identifying said molecules” (CENTRE NATIONAL DE LA RECHERCHE SCIENTIFIQUE, priority 2008, dated 2016).

The target in the first assay is T1, murine Syk tyrosine kinase protein (GST:Syk 6-242) (Mus musculus, UniProt P48025).
T1 construct: made in house
The assay is described as follows: ADA method: displacement of the binding of scFv G4G11 with Syk (ELISA). The following applies: ADA method; read-out: estimated IC50 for competing with the binding of scFv G4G11 with Syk. The method in brief: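 GST:Syk 6-242 (murine) was immobilised at 10 μg ml^−1 and pre-incubated 1 h at ambient temperature with compounds at 10 μM final in PBS. scFv G4G11 was then added at 100 nM for 1 h. Bound scFv was detected via its C-terminal c-myc tag with HRP-9E10, and % inhibition was taken from signals with versus without compound.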
`COC(=O)c1ccccc1-c1ccc(/C=C2/SC(=S)N(Cc3ccccc3)C2=O)o1` [Molecule C-13, methyl 2-{5-[(3-benzyl-4-oxo-2-thioxo-1,3-thiazolidin-5-ylidene)methyl]-2-furyl}benzoate]: the IC50 is around 4 µM.

Still in this assay, the particulars now being: small molecules at 10 μM, scFv G4G11 100 nM; read-out: In vit. inhib.: mean inhibition % of the binding of scFv G4G11 with Syk in the ADA method.
In the case of `C=CCn1c(CNC(=O)c2cccc(C)c2)cnc1SCC(=O)Nc1cccc(C(=O)OC(C)C)c1` [Molecule 75], the inhibition at 10 µM came to 27%.

In the case of `CCOC(=O)C1=C(C)NC2=C(C(=O)c3ccccc32)C1c1cc(Br)ccc1OCC(=O)O` (stereo not drawn) [Molecule 3, {4-bromo-2-[3-(ethoxy carbonyl)-2-methyl-5-oxo-4,5-dihydro-1H-indeno[1,2-b]pyridin-4-yl]phenoxy} acetic acid], the inhibition at 10 µM stood at 81%. Turning to `O=C(Nc1ccccc1)c1ccc(NCCN2CCOCC2)c(S(=O)(=O)N2CCOCC2)c1` [Molecule 46, 4-{[2-(4-morpholinyl)ethyl]amino}-3-(4-morpholinylsulphonyl)-N-phenylbenzamide], the inhibition at 10 µM came to 48%.

As for `CCOc1ccc(NC(=O)CC2C(=O)N(c3ccc(OC)cc3)C(=S)N2CCN2CCOCC2)cc1` (stereo not drawn) [Molecule 84, N-(4-ethoxyphenyl)-2-{1-(4-methoxyphenyl)-3-[2-(4-morpholinyl)ethyl]-5-oxo-2-thioxo-4-imidazolidinyl}acetamide], the inhibition at 10 µM amounted to 19%.

Take `CCOC(=O)c1ccc(NC(=O)CSc2nnc(-c3ccco3)c(-c3ccco3)n2)cc1` [Molecule 54, ethyl 4-({[(5,6-di-2-furyl-1,2,4-triazin-3-yl)thio]acetyl}amino)benzoate]: the inhibition at 10 µM worked out at 43%.

On to `COc1ccc(C)cc1NC(=O)c1ccc(CN2CCC(Cc3ccccc3)CC2)cc1` [Molecule 17, 4-[(4-benzyl-1-piperidinyl)methyl}-N-(2-methoxy-5-methylphenyl)benzamide], for which the inhibition at 10 µM was determined as 63%. Same read-out and setting: the figure for `CCOC(=O)c1sc(N2C(=O)C(O)=C(C(=O)c3ccc(F)cc3)C2c2ccc(C)cc2)nc1C` (stereo not drawn) [Molecule 10, ethyl 2-[3-(4-fluorobenzoyl)-4-hydroxy-2-(4-methylphenyl)-5-oxo-2,5-dihydro-1H-pyrrol-1-yl]-4-methyl-1,3-thiazole-5-carboxylate] is 71%. Still for that read-out and setting: the figure for `O=C(C1=C(O)C(=O)N(Cc2cccnc2)C1c1cccc(Oc2ccccc2)c1)c1ccc(Cl)cc1` (stereo not drawn) [Molecule 1, 4-(4-chlorobenzoyl)-3-hydroxy-5-(3-phenoxyphenyl)-1-(3-pyridinylmethyl)-1,5-dihydro-2H-pyrrol-2-one] is 86.5%. Same read-out and setting: then `COC(=O)c1ccccc1-c1ccc(/C=C2/SC(=S)N(Cc3ccccc3)C2=O)o1` [Molecule C-13, methyl 2-{5-[(3-benzyl-4-oxo-2-thioxo-1,3-thiazolidin-5-ylidene)methyl]-2-furyl}benzoate], with 81%; and `CCOC(=O)c1ccc(NC(=O)CC2C(=O)N(c3ccc(Cl)cc3)C(=S)N2Cc2cccnc2)cc1` (stereo not drawn) [Molecule 61], with 39.5%; and `COc1ccccc1C(=O)Nc1ccc(-c2nnc(SCC(=O)c3ccccc3)n2C)cc1` [Molecule 15, 2-methoxy-N-(4-(4-methyl-5-[(2-oxo-2-phenylethyl)thio]-4H-1,2,4-triazol-3-yl)phenyl)benzamide], with 67.5%. For `CCn1c(CCC(=O)c2ccc(Cl)cc2)nnc1SCC(=O)Nc1ccc(Br)c(C)c1C` [Molecule 82], the inhibition at 10 µM came out at 20%. Same read-out and setting: the figure for `COc1cccc(C2C(C(=O)c3ccc(C)cc3)=C(O)C(=O)N2CCCN2CCOCC2)c1` (stereo not drawn) [Molecule 4, 3-hydroxy-5-(3-methoxyphenyl)-4-(4-methylbenzoyl)-1-[3-(4-morpholinyl)propyl]-1,5-dihydro-2H-pyrrol-2-one] is 79.5%; for `COc1ccc(S(=O)(=O)N(CCc2ccccc2)CC(=O)Nc2ccc(C(N)=O)cc2)cc1` [Molecule 18] it is 63%; for `CCOC(=O)c1ccc(N2C(=O)C(O)=C(C(=O)c3ccccc3)C2c2ccc(ON)cc2OC)cc1` (stereo not drawn) [Molecule 6] it is 73.5%. On to `Cc1cc(C(=O)Nc2ccccc2C(=O)O)ccc1NC(=O)COc1ccc(C(C)C)cc1` [Molecule 49, 2-[(4-{[(4-isopropylphenoxy)acetyl]amino}-3-methylbenzoyl)amino] benzoic acid], for which the inhibition at 10 µM amounted to 46.5%. Turning to `C=CCn1c(SCC(=O)Nc2cccc(OC)c2)nnc1C(C)NC(=O)c1ccccc1` (stereo not drawn) [Molecule 66, N-{1-[4-allyl-5-({2-[(3-methoxyphenyl)amino]-2-oxoethyl}thio)-4H-1,2,4-triazol-3-yl]ethyl} benzamide], the inhibition at 10 µM was determined as 35%. Still for that read-out and setting: then `COc1cc(-c2nnc(SCC(=O)Nc3ccc(Cl)cc3)n2CCc2ccccc2)cc(OC)c1OC` [Molecule 59], with 40%; and `COc1ccc(C2C(C(=O)c3cccs3)=C(O)C(=O)N2CCCn2ccnc2)c(OC)c1` (stereo not drawn) [Molecule 2], with 81%; and `O=C(NCc1nnc(NCc2nc3ccccc3c(=O)[nH]2)n1-c1ccccc1)c1ccccc1F` [Molecule 29], with 53.5%.
